Data as given in patent publication US20250122181A1, “BENZIMIDAZOLES AS MODULATORS OF IL-17” (Janssen Pharmaceutica NV, priority 2021, published 2025).

Experiments:
[1] = system: IL-17A-induced G-CSF production in human normal keratinocyte (NHK); test: NHK Assay: IL-17A-induced G-CSF production in human normal keratinocyte; assay type: cell-based; conditions: 24 h, IL-17A 5 ng/mL, simple average if tested more than once
Procedure: IL-17A acts directly on keratinocytes through binding to dimeric receptor IL-17RA/RC and drives the production of a number of inflammatory mediators known to be elevated in psoriasis lesional tissue. IL-17A small molecule inhibitors that block the IL-17A to interact with IL-17R would inhibit the IL-17A signaling in its targeted cells such as keratinocytes. The compound functional activity is evaluated for its impact on IL-17A-induced G-CSF production in human normal keratinocyte (NHK).
Adult normal human keratinocytes are cultured in keratinocyte growth medium (Lonza) in a flask till reaching ˜90% confluence, then cells are transferred to a 384-well plate at density of 3000-4000 cell/well. Recombinant human IL-17A (Gibco PHC9174) is pre-incubated with titrated compound or DMSO for 1 h at rt then added to the cell culture plate. The final concentration of IL-17A is 5 ng/mL and DMSO is 0.2%, in the culture containing 5% FBS. Cells are cultured/treated for 24 h at 37° C. Supernatants are collected and G-CSF production is measured through HTRF technology using Human G-CSF Kit (CisBio). G-CSF concentration was extrapolated from the standard curve and IC50 is determined using GraphPad Prism. Cell viability is also evaluated using CellTiter-Glo kit (Promega) and effect of compound on cell viability is compared to DMSO control.

[2] = target: IL-17A(FLAG-Tagged): IL-17RA(His-Tagged) (Homo sapiens, UniProt Q16552, K93Q); test: IL-17A(FLAG-Tagged): IL-17RA(His-Tagged) Binding Disruption Eu-HTRF Assay, Protocol 1; conditions: Protocol 1, FLAG tagged IL-17A 2.5 nM; simple average if tested more than once
Text: An antibody directed against the FLAG tag of IL-17A (SEQ ID NO: 1) is labeled with the HTRF donor chromophore (Europium-cryptate). IL-17A is present as a dimer that is “locked into” this quaternary structure due to the formation of loop-spanning […] disulfide bridges. The construct of IL-17RA used in the assay excludes the […] portion of the receptor and is fused to a C-terminal 10×His tag (SEQ ID NO:2). An antibody directed against the His tag of the IL-17RA chimera is labeled with the HTRF acceptor chromophore (“D2”). The fluorescence-resonance energy transfer (FRET) depends on the vicinity of the donor chromophore to the acceptor, and interruption of the binding between the IL-17A and IL-17RA causes the reduction/loss of FRET. Therefore, this assay allows to evaluate the compound effect on the binding IL-17A and IL-17RA by monitoring the fluorescence intensity of donor vs acceptor. The assay was run using either Protocol 1 or Protocol 2 as described below.
Protocol 1. 40 nl of 2-fold serial diluted compound solution for total 22 dilution points is added into each well of a 1536-well, white, low-volume, non-binding plate (Greiner #782904), then 2 μl of FLAG tagged IL-17A at 2× final concentration (2.5 nM) in solution of PBS+0.01% Triton-X100 is added to each well. The assay plate is briefly centrifuged then incubated for 1 h at rt. A mixed solution is prepared containing 2×5 nM 10HIS×IL-17RA, 2×2.5 nM Eu-anti-FLAG (CISBIO), 2×5 nM D2-anti-HIS (CISBIO) in PBS+0.01% Triton-X100+200 mM Potassium Fluoride (Sigma 60238) and 2 μl of mix is added to each well of the assay plate. The plate is briefly centrifuged then incubated for 2 h at rt. The HTRF intensities at the wavelength of donor (620 nm) and acceptor (665 nm) are measured using BMG Pherastar. The ratio between intensities at two wavelengths is calculated and plotted against the compound concentration and the data is fitted to a one-site competition model to yield IC50 of the compound.

Chain of UniProt Q16552 (Q16552 with tags, fused parts or gaps K93Q): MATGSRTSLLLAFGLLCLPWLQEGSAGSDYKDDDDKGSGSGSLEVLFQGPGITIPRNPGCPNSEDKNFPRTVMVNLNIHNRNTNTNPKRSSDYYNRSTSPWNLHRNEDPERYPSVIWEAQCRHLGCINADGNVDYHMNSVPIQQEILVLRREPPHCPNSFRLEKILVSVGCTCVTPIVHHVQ

| Compound | IC50 ([1]; Homo sapiens, Keratinocyte) | IC50 [2] | IC50 [1] |
| --- | --- | --- | --- |
| [2H]C1([2H])[C@H](C(F)(F)F)NC(=O)N1[C@@H](c1ccc2[nH]c([C@@H](NC(=O)c3nonc3C)[C@@H](C)O[C@H](C)C(F)(F)F)nc2c1)C1CC1 (relative stereo) [Example 8, N-((1R*,2R)-1-(5-((R)-Cyclopropyl((R*)-2-oxo-4-(trifluoromethyl)imidazolidin-1-yl-5,5-d2)methyl)-1H-benzo[d]imidazol-2-yl)-2-(((R)-1,1,1-trifluoropropan-2-yl)oxy)propyl)-4-methyl-1,2,5-oxadiazole-3-carboxamide] | > 100 nM | 50 to 100 nM |  |
| [2H]C1([2H])[C@@H](C(F)(F)F)NC(=O)N1[C@@H](c1ccc2[nH]c([C@@H](NC(=O)c3nonc3C)[C@@H](C)O[C@H](C)C(F)(F)F)nc2c1)C1CC1 (relative stereo) [Example 9, N-((1R*,2R)-1-(5-((R)-Cyclopropyl((S*)-2-oxo-4-(trifluoromethyl)imidazolidin-1-yl-5,5-d2)methyl)-1H-benzo[d]imidazol-2-yl)-2-(((R)-1,1,1-trifluoropropan-2-yl)oxy)propyl)-4-methyl-1,2,5-oxadiazole-3-carboxamide] | < 50 nM | < 50 nM |  |
| [2H]C1([2H])[C@@H](C(F)(F)F)NC(=O)N1[C@@H](c1ccc2[nH]c([C@@H](NC(=O)c3nonc3C)[C@@H](C)O[C@@H](C)C(F)(F)F)nc2c1)C1CC1 (relative stereo) [Example 12, N-((1R*,2R)-1-(5-((R)-Cyclopropyl((S*)-2-oxo-4-(trifluoromethyl)imidazolidin-1-yl-5,5-d2)methyl)-1H-benzo[d]imidazol-2-yl)-2-(((S)-1,1,1-trifluoropropan-2-yl)oxy)propyl)-4-methyl-1,2,5-oxadiazole-3-carboxamide] |  | < 50 nM | < 50 nM |
| C[C@H](c1ccc2[nH]c([C@H](COC(C)(C)C(F)(F)F)NC(=O)c3nonc3C3CC3)nc2c1)N1CC(F)(F)CNC1=O (relative stereo) [Example 25, 4-Cyclopropyl-N—((R)-1-(5-((R*)-1-(5,5-difluoro-2-oxotetrahydropyrimidin-1(2H)-yl)ethyl)-1H-benzo[d]imidazol-2-yl)-2-((1,1,1-trifluoro-2-methylpropan-2-yl)oxy)ethyl)-1,2,5-oxadiazole-3-carboxamide] | < 50 nM | < 50 nM |  |
| Cc1nonc1C(=O)N[C@@H](COC(C)(C)C(F)(F)F)c1nc2cc([C@@H](C)N3CC(F)(F)CNC3=O)ccc2[nH]1 (relative stereo) [Example 26, N—((R)-1-(5-((R*)-1-(5,5-Difluoro-2-oxotetrahydropyrimidin-1(2H)-yl)ethyl)-1H-benzo[d]imidazol-2-yl)-2-((1,1,1-trifluoro-2-methylpropan-2-yl)oxy)ethyl)-4-methyl-1,2,5-oxadiazole-3-carboxamide] | < 50 nM | < 50 nM |  |
| CC(C)n1nccc1C(=O)N[C@@H](COC(C)(C)C(F)(F)F)c1nc2cc([C@@H](C)N3CC(F)(F)CNC3=O)ccc2[nH]1 (relative stereo) [Example 27, N—((R)-1-(5-((R*)-1-(5,5-Difluoro-2-oxotetrahydropyrimidin-1(2H)-yl)ethyl)-1H-benzo[d]imidazol-2-yl)-2-((1,1,1-trifluoro-2-methylpropan-2-yl)oxy)ethyl)-1-isopropyl-1H-pyrazole-5-carboxamide] | < 50 nM | < 50 nM |  |
| CC(C)n1nccc1C(=O)N[C@@H](COC(C)(C)C(F)(F)F)c1nc2nc(CN3C[C@H](C(F)(F)F)NC3=O)ccc2[nH]1 (relative stereo) [Example 36, 1-Isopropyl-N—((R*)-1-(5-(((R*)-2-oxo-4-(trifluoromethyl)imidazolidin-1-yl)methyl)-1H-imidazo[4,5-b]pyridin-2-yl)-2-((1,1,1-trifluoro-2-methylpropan-2-yl)oxy)ethyl)-1H-pyrazole-5-carboxamide] | < 50 nM | < 50 nM |  |
| CC(C)n1nccc1C(=O)N[C@@H](COC(C)(C)C(F)(F)F)c1nc2nc(CN3C[C@@H](C(F)(F)F)NC3=O)ccc2[nH]1 (relative stereo) [Example 37, 1-Isopropyl-N—((R*)-1-(5-(((S*)-2-oxo-4-(trifluoromethyl)imidazolidin-1-yl)methyl)-1H-imidazo[4,5-b]pyridin-2-yl)-2-((1,1,1-trifluoro-2-methylpropan-2-yl)oxy)ethyl)-1H-pyrazole-5-carboxamide] | > 100 nM | > 100 nM |  |
| [2H]C1([2H])NC(=O)N([C@@H](c2ccc3[nH]c([C@H](COC(C)(C)C(F)(F)F)NC(=O)c4nonc4C)nc3c2)C2CC2)C([2H])([2H])C1(F)F [Example 80, N—((R)-1-(5-((R)-Cyclopropyl(5,5-difluoro-2-oxotetrahydropyrimidin-1(2H)-yl-4,4,6,6-d4)methyl)-1H-benzo[d]imidazol-2-yl)-2-((1,1,1-trifluoro-2-methylpropan-2-yl)oxy)ethyl)-4-methyl-1,2,5-oxadiazole-3-carboxamide] | < 50 nM |  |  |
| [2H]C1([2H])NC(=O)N([C@@H](c2ccc3[nH]c([C@H](COC(C)(C)C(F)(F)F)NC(=O)c4nonc4C)nc3c2)C2CC2)CC1(F)F [Example 81, N-[(1R)-1-[5-[(R)-Cyclopropyl-(4,4-dideuterio-5,5-difluoro-2-oxo-hexahydropyrimidin-1-yl)methyl]-1H-benzimidazol-2-yl]-2-(2,2,2-trifluoro-1,1-dimethyl-ethoxy)ethyl]-4-methyl-1,2,5-oxadiazole-3-carboxamide] | < 50 nM |  |  |
| [2H]C1([2H])NC(=O)N([C@@H](c2ccc3[nH]c([C@H](COC(C)(C)C(F)(F)F)NC(=O)c4nonc4C4CC4)nc3c2)C2CC2)CC1(F)F [Example 82, 4-Cyclopropyl-N-[(1R)-1-[5-[(R)-cyclopropyl-(4,4-dideuterio-5,5-difluoro-2-oxo-hexahydropyrimidin-1-yl)methyl]-1H-benzimidazol-2-yl]-2-(2,2,2-trifluoro-1,1-dimethyl-ethoxy)ethyl]-1,2,5-oxadiazole-3-carboxamide] | < 50 nM |  |  |
| Cc1nonc1C(=O)N[C@H](c1nc2c(F)cc([C@@H](C3CC3)N3C[C@@H](C(F)(F)F)NC3=O)cc2[nH]1)[C@@H](C)O[C@H](C)C(F)(F)F [Example 86, N-[(1R,2R)-1-[6-[(R)-Cyclopropyl-[(4S)-2-oxo-4-(trifluoromethyl)imidazolidin-1-yl]methyl]-4-fluoro-1H-benzimidazol-2-yl]-2-[(1R)-2,2,2-trifluoro-1-methyl-ethoxy]propyl]-4-methyl-1,2,5-oxadiazole-3-carboxamide] | < 50 nM |  |  |
| Cc1nonc1C(=O)N[C@H](c1nc2ccc(CN3C[C@@H](C(F)(F)F)NC3=O)c(F)c2[nH]1)[C@@H](C)O[C@H](C)C(F)(F)F [Example 92, N-[(1R,2R)-1-[7-Fluoro-6-[[(4S)-2-oxo-4-(trifluoromethyl)imidazolidin-1-yl]methyl]-1H-benzimidazol-2-yl]-2-[(1R)-2,2,2-trifluoro-1-methyl-ethoxy]propyl]-4-methyl-1,2,5-oxadiazole-3-carboxamide] | < 50 nM |  |  |
| C[C@@H](O[C@H](C)C(F)(F)F)[C@H](NC(=O)c1nonc1C1CC1)c1nc2ccc(CN3C[C@@H](C(F)(F)F)NC3=O)c(F)c2[nH]1 [Example 93, 4-Cyclopropyl-N-[(1R,2R)-1-[7-fluoro-6-[[(4S)-2-oxo-4-(trifluoromethyl)imidazolidin-1-yl]methyl]-1H-benzimidazol-2-yl]-2-[(1R)-2,2,2-trifluoro-1-methyl-ethoxy]propyl]-1,2,5-oxadiazole-3-carboxamide] | < 50 nM |  |  |
